The source made the active and inactive calls. The rule behind the calls is not given here.
Tests used:
[1] = target: Megakaryocyte-associated tyrosine-protein kinase (Homo sapiens) (UniProt P42679); details: Compound concentration 1.0 uM
[2] = target: Mitogen-activated protein kinase 1 (Homo sapiens) (UniProt P28482); assay: MAPK2ERK2 DUNDEE kinase screen (BI); details: Mus musculus; Compound concentration 10.0 uM
[3] = target: Ephrin type-B receptor 3 (Homo sapiens) (UniProt P54753); details: Compound concentration 1.0 uM
[4] = target: Nitric oxide synthase 3 (Rattus norvegicus) (UniProt Q62600); assay: CNOS Eurofins SafetyScreen44 (BI); details: Compound concentration 10.0 uM
[5] = target: Myosin light chain kinase 2, skeletal/cardiac muscle (Homo sapiens) (UniProt Q9H1R3); details: Compound concentration 1.0 uM
[6] = target: Rho-associated protein kinase 1 (Homo sapiens) (UniProt Q13464); assay: ROCK1 Invitrogen Lab (UK) kinase screen (BI)
Sequence of Rho-associated protein kinase 1 (Homo sapiens) (Q13464 2-1354 limits assumed): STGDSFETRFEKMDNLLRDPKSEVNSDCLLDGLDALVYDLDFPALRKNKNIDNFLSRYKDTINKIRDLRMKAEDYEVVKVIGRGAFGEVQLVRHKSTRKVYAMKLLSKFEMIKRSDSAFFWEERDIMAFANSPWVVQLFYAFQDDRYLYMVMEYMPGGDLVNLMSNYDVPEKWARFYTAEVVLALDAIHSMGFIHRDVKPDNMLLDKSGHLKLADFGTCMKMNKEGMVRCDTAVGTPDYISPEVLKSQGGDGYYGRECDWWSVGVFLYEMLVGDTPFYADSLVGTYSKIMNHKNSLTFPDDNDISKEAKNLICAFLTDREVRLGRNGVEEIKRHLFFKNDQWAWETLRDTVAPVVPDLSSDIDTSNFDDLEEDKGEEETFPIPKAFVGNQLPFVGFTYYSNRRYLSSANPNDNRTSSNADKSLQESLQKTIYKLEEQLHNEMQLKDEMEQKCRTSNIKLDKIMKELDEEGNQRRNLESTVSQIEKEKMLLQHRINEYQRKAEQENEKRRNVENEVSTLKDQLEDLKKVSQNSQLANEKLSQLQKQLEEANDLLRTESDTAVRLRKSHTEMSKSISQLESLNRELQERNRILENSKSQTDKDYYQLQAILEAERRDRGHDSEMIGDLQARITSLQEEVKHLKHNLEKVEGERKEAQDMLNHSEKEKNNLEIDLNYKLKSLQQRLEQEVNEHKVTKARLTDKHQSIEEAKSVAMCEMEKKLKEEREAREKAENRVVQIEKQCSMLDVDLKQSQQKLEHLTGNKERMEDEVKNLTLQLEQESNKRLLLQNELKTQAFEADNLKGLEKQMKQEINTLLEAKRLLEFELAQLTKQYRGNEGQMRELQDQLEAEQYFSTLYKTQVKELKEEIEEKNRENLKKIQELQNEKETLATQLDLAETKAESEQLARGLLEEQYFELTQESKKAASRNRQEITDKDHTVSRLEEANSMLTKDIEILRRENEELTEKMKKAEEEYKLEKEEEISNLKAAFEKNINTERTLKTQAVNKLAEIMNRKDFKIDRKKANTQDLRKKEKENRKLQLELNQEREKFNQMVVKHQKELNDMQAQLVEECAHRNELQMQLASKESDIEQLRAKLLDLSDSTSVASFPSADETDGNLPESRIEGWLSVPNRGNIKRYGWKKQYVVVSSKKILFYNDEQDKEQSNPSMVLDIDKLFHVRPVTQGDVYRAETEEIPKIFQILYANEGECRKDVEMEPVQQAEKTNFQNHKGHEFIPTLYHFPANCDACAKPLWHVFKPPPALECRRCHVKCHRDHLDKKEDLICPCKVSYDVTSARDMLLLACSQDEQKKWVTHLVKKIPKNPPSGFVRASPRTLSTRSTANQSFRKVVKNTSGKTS

[7] = target: Beta-2 adrenergic receptor (Homo sapiens) (UniProt P07550); details: Compound concentration 10.0 uM
[8] = target: Muscarinic acetylcholine receptor M4 (Homo sapiens) (UniProt P08173); details: Compound concentration 10.0 uM
[9] = target: MAP kinase-activated protein kinase 3 (Homo sapiens) (UniProt Q16644); details: Compound concentration 1.0 uM
[10] = target: AP2-associated protein kinase 1 (Homo sapiens, UniProt Q2M2I8); assay: NanoBRET (SGC-FFM) (AAK1)
[11] = target: Muscarinic acetylcholine receptor M3 (Homo sapiens) (UniProt P20309); details: Compound concentration 10.0 uM
[12] = target: Serine/threonine-protein kinase 25 (Homo sapiens) (UniProt O00506); details: Compound concentration 1.0 uM
[13] = target: Ribosomal protein S6 kinase alpha-1 (Homo sapiens) (UniProt Q15418); details: Compound concentration 1.0 uM
[14] = target: Nitric oxide synthase 3 (Bos taurus) (UniProt P29473); details: Compound concentration 10.0 uM
[15] = target: Serine/threonine-protein kinase Sgk3 (Homo sapiens) (UniProt Q96BR1); details: Compound concentration 1.0 uM
[16] = target: Fibroblast growth factor receptor 1 (Homo sapiens) (UniProt P11362)
Sequence of Fibroblast growth factor receptor 1 (Homo sapiens) (P11362 22-822 limits assumed): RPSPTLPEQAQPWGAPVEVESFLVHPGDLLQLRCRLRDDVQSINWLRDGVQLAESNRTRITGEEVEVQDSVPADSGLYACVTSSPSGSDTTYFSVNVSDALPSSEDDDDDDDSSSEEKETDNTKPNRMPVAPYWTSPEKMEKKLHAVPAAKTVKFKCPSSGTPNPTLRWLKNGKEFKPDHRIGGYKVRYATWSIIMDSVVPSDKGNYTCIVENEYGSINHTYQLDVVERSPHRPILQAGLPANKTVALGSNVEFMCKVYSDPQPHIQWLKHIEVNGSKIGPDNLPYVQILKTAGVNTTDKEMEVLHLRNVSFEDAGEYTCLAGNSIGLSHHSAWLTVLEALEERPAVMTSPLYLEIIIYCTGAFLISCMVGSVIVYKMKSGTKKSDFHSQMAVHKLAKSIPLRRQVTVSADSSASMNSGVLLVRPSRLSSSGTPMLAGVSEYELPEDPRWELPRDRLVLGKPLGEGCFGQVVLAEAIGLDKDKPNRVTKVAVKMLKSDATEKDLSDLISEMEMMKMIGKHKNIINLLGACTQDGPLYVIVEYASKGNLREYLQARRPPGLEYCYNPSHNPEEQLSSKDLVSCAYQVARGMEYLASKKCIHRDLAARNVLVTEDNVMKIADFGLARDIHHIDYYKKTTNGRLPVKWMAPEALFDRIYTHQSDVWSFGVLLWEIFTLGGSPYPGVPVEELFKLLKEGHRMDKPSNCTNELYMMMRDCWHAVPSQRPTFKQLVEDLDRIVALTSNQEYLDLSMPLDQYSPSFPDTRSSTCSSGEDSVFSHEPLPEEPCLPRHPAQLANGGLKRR

[17] = target: TRAF2 and NCK-interacting protein kinase (Homo sapiens) (UniProt Q9UKE5); details: Compound concentration 1.0 uM
[18] = target: Phosphatidylinositol 4-kinase beta (Homo sapiens) (UniProt Q9UBF8); details: Compound concentration 1.0 uM
Sequence of Phosphatidylinositol 4-kinase beta (Homo sapiens) (Q9UBF8 2-816 limits assumed): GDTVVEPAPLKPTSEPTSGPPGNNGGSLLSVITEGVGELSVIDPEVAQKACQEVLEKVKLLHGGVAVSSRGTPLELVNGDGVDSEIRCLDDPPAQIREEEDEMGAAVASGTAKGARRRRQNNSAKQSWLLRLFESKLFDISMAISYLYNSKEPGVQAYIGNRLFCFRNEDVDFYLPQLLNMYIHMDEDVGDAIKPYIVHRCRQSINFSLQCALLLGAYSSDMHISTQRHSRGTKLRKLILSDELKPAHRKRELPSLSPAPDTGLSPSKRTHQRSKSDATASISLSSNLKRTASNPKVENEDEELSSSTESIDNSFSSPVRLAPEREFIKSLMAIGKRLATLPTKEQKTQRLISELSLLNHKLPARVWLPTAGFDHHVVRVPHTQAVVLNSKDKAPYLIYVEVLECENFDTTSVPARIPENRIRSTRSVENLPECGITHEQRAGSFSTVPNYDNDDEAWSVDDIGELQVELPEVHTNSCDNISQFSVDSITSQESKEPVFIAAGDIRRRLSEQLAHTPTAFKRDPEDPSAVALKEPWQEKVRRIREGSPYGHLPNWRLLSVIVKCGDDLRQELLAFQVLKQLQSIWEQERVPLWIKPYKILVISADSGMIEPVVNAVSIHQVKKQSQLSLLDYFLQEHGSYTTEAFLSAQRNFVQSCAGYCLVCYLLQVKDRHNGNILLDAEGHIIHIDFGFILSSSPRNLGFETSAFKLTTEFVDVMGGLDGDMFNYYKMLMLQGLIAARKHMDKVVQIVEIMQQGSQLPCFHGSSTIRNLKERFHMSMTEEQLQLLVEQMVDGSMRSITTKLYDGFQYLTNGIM

[19] = target: Cyclin-dependent kinase 5/CDK5 activator 1 (Homo sapiens) (UniProt Q00535+Q15078); details: Compound concentration 1.0 uM
[20] = target: Serine/threonine-protein kinase 38 (Homo sapiens) (UniProt Q15208); assay: STK38 (NDR) Invitrogen Lab (UK) kinase screen (BI); details: Compound concentration 1.0 uM
[21] = target: Rho-associated protein kinase 2 (Homo sapiens) (UniProt O75116); details: Compound concentration 1.0 uM
[22] = target: Calcium/calmodulin-dependent protein kinase type 1D (Homo sapiens) (UniProt Q8IU85); details: Compound concentration 1.0 uM
[23] = target: Serine/threonine-protein kinase D1 (Homo sapiens) (UniProt Q15139); assay: PKD1 DUNDEE kinase screen (BI); details: Compound concentration 10.0 uM
[24] = target: CDK2/Cyclin A1 (Homo sapiens) (UniProt P24941+P78396); assay: CDK2/CYCLIN A1 Invitrogen Lab (UK) kinase screen (BI); type: protein-complex assay; details: Compound concentration 1.0 uM
[25] = target: Mitogen-activated protein kinase 15 (Homo sapiens) (UniProt Q8TD08); assay: MAPK15 (ERK7) Invitrogen Lab (UK) kinase screen (BI); details: Compound concentration 1.0 uM
[26] = target: CDK4/Cyclin D3 (Homo sapiens) (UniProt P11802+P30281); details: Compound concentration 1.0 uM
[27] = target: Serine/threonine-protein kinase SIK1 (Homo sapiens) (UniProt P57059); details: Compound concentration 1.0 uM
[28] = target: RAF proto-oncogene serine/threonine-protein kinase (Homo sapiens) (UniProt P04049); assay: RAF1 Invitrogen Lab (UK) kinase screen (BI); details: Compound concentration 1.0 uM
[29] = target: Beta-3 adrenergic receptor (Homo sapiens) (UniProt P13945); details: Compound concentration 10.0 uM
[30] = target: Serine/threonine-protein kinase PLK3 (Homo sapiens) (UniProt Q9H4B4); details: Compound concentration 1.0 uM
[31] = target: 5-hydroxytryptamine receptor 2B (Homo sapiens) (UniProt P41595); details: Compound concentration 10.0 uM
[32] = target: Tyrosine-protein kinase CSK (Homo sapiens) (UniProt P41240); assay: CSK DUNDEE kinase screen (BI); details: Compound concentration 10.0 uM
[33] = target: High affinity nerve growth factor receptor (Homo sapiens) (UniProt P04629); assay: NTRK1 Invitrogen Lab (UK) kinase screen (BI)
Sequence of High affinity nerve growth factor receptor (Homo sapiens) (P04629 33-796 limits assumed): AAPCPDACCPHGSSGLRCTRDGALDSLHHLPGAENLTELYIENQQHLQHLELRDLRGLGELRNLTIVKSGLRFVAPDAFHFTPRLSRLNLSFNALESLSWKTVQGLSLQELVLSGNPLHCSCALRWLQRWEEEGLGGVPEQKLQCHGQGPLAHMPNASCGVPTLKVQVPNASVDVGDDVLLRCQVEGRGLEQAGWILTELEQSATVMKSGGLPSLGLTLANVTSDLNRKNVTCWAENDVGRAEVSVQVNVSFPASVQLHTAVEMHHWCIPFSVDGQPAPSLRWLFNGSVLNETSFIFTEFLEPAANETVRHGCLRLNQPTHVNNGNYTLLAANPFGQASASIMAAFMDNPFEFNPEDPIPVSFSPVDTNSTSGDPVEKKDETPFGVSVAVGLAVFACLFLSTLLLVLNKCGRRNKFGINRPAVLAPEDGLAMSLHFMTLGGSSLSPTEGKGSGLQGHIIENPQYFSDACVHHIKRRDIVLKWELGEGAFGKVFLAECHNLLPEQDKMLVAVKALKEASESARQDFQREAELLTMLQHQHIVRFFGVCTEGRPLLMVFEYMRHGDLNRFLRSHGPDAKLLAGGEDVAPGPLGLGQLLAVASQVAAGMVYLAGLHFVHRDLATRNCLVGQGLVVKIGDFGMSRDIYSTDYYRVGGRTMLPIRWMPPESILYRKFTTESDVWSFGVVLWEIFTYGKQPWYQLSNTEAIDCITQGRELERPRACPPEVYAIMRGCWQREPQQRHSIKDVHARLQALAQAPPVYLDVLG

[34] = target: Calcium/calmodulin-dependent protein kinase type II subunit alpha (Homo sapiens) (UniProt Q9UQM7); details: Compound concentration 1.0 uM
Sequence of Calcium/calmodulin-dependent protein kinase type II subunit alpha (Homo sapiens) (Q9UQM7 whole entry): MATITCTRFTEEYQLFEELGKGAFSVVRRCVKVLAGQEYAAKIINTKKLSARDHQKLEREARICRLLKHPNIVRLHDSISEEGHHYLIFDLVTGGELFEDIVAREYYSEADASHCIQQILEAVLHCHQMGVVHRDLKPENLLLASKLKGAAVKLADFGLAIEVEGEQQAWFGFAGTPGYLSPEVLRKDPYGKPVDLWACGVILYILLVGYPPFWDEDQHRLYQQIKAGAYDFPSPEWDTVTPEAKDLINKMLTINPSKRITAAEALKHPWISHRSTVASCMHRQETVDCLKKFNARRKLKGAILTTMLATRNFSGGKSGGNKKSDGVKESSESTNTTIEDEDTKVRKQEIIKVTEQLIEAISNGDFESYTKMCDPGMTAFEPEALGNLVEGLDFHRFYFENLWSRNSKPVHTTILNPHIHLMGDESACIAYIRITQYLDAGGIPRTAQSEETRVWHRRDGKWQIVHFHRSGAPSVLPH

[35] = target: Delta-type opioid receptor (Homo sapiens) (UniProt P41143); details: Compound concentration 10.0 uM
[36] = target: Serotonin 1 (5-HT1) receptor (Rattus norvegicus) (UniProt P28564+P30940+P19327+P28565); assay: 5HT1/R Eurofins SafetyScreen44 (BI); type: protein assay
[37] = target: Serine/threonine-protein kinase Chk2 (Homo sapiens) (UniProt O96017); assay: CHK2 DUNDEE kinase screen (BI); details: Compound concentration 10.0 uM
[38] = target: Phosphatidylinositol 4-kinase type 2-alpha (Homo sapiens) (UniProt Q9BTU6); details: Compound concentration 1.0 uM
[39] = target: Calcium/calmodulin-dependent protein kinase type II subunit beta (Homo sapiens) (UniProt Q13554); details: Compound concentration 1.0 uM
[40] = target: Inhibitor of nuclear factor kappa-B kinase subunit beta (Homo sapiens, UniProt O14920); assay: Biochemical assay
Sequence of Inhibitor of nuclear factor kappa-B kinase subunit beta (O14920 whole entry): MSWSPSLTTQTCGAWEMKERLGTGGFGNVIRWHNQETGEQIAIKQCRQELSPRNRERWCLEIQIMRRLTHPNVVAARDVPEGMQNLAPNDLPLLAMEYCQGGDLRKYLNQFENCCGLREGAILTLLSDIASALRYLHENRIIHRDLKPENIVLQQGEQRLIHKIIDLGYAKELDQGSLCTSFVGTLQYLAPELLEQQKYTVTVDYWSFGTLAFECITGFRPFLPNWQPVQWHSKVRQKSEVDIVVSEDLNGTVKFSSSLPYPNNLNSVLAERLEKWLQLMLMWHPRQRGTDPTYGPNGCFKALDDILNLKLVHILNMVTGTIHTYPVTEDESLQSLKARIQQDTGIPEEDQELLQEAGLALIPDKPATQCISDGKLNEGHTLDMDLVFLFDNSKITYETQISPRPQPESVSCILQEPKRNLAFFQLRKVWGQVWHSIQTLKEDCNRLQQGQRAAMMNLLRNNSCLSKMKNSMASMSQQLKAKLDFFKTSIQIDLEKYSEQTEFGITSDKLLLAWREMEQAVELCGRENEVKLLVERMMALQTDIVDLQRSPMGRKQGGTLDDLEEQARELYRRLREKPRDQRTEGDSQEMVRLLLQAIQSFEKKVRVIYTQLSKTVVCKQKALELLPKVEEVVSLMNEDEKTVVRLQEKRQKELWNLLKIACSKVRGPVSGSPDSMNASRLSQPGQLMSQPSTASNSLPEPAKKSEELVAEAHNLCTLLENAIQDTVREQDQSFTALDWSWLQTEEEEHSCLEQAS

[41] = target: Natriuretic peptides A (Cavia porcellus) (UniProt P27596); details: Compound concentration 100.0 uM
[42] = target: Sodium/potassium-transporting ATPase (Sus scrofa) (UniProt P05027+P05024+D2WKD8+D2WKD7+F1ST41); details: Compound concentration 10.0 uM
[43] = target: Bone morphogenetic protein receptor type-1A (Homo sapiens) (UniProt P36894); details: Compound concentration 1.0 uM

Work on `CCC(F)(F)c1cc(N2CCC(S(C)(=O)=O)CC2)nc2sc(C(N)=O)c(N)c12` [BI-605906] yielded a residual activity [1] of 101%, a residual activity [2] of 90.1% and a residual activity [3] of 99%. The residual activity [4] was 102%, the residual activity [5] was 98% and the residual activity ([6]; Compound concentration 1.0 uM) was 88%. For the same compound, the residual activity ([6]; Compound concentration 10.0 uM) was 47%, the inhibition [7] was 8.96% and the inhibition [8] was 13.3%. The residual activity [9] was 93%, the IC50 [10] was 7 µM (not active) and the inhibition [11] was 21.1%. For the same compound, the residual activity [12] was 100%, the residual activity [13] was 94% and the residual activity [14] was 100%. For the same compound, the residual activity [15] was 96%, the residual activity ([16]; Compound concentration 1.0 uM) was 84% and the residual activity ([16]; Compound concentration 10.0 uM) was 91%. For the same compound, the residual activity [17] was 99%, the residual activity [18] was 92% and the residual activity [19] was 97%. For the same compound, the residual activity [20] was 83%, the residual activity [21] was 96% and the residual activity [22] was 98%. It also gave a residual activity [23] of 93.5%, a residual activity [24] of 80% and a residual activity [25] of 103%. For the same compound, the residual activity [26] was 97%, the residual activity [27] was 92% and the residual activity [28] was 78%. For the same compound, the inhibition [29] was 18%, the residual activity [30] was 93% and the inhibition [31] was 13.4%. For the same compound, the residual activity [32] was 78.3%, the residual activity ([33]; Compound concentration 1.0 uM) was 81% and the residual activity ([33]; Compound concentration 10.0 uM) was 83%. The residual activity [34] was 100%, the inhibition [35] was 3.97% and the residual activity ([36]; Compound concentration 10.0 uM) was 119%. It also gave a residual activity ([36]; Compound concentration 100.0 uM) of 107%, a residual activity [37] of 49.7% and a residual activity [38] of 92%. The residual activity [39] was 99%, the IC50 [40] was 0.049 µM (active) and the residual activity [41] was 100%. It also gave a residual activity [42] of 105% and a residual activity [43] of 100%.

From ChEMBL document CHEMBL4800722, “Data for DCP probe BI 605906” (2021)
